Assay results taken from US11186577B2, “Vasopressin receptor antagonists and products and methods related thereto” (BlackThorn Therapeutics, Inc., priority 2017, dated 2021).

target: human Arginine Vasopressin Receptor 1a (AVPR1a) (Homo sapiens (Human), UniProt P37288); assay: Vasopressin V1A receptor antagonist assay (AVP-evoked calcium, FLIPR, CHO-AVPR1a cells); format: cell-based; details: not given
Method: The purpose of this assay was to determine the inhibitory effect of synthesized compounds on the Vasopressin V1a receptor. The assay as performed in Chinese Hamster Ovary (CHO) cells expressing the human Arginine Vasopressin Receptor 1a (AVPR1a). Arginine Vasopressin (AVP) evokes an increase in intracellular calcium in CHO-AVPR1a cells which is measured in a fluorescence assay on the FLIPR^TETRA using calcium sensitive dyes. Test compounds were assessed for their ability to affect the magnitude of the response to AVP, with antagonists showing a concentration-dependent reduction in the AVP-mediated fluorescence. Compounds were tested in duplicate in a 10-point, 1:3 dilution series starting at a nominal concentration of 3 μM in the assay.
CHO-AVPR1a cells were maintained in routine culture in T175 Flasks at 37° C., 5% CO2. The growth medium consists of Ham's F12 media supplemented with 10% v/v fetal bovine serum, 1× non-essential amino acids, and 0.4 mg/ml Geneticin G418.
On day one, cells were harvested from T175 flasks when they are 80-90% confluent by first washing the cell monolayer with PBS and then dissociated using trypsin 0.05%/EDTA (3 mL for a T175 Flask). The flasks were incubated at room temperature until the cells detached. To the cell suspension, 10 ml of growth media was added and the cell density determined using the Vi-Cell automated cell counter. The cells were spun at 1000 rpm for 3 minutes, then the supernatant was carefully removed and discarded. The cell pellet was re-suspended at 6.0e^5 cells/ml in growth media. 25 μL of cells in growth media was dispensed into each well (15,000 cells per well) of a poly-D-lysine coated black, clear bottomed, 384-well plate. The plates were incubated at 37° C., 5% CO2 overnight.
At the start of each assay day, the potency of AVP was assessed and an EC80 concentration determined for subsequent compound profiling. Assays were performed using a two-step addition protocol on the FLIPR^TETRA; first addition of 5 μl of control or test compound at 10× final in assay buffer with 15 min incubation at 37° C., 5% CO2 followed by 10 μl of AVP at 6× final concentration in assay buffer. […] The assay buffer consisted of HBSS (+Ca/+Mg) supplemented with 20 mM HEPES, and for the preparation of the AVP agonist only, 0.1% w/v bovine serum albumin. The assay was initiated by the removal of growth media from the cells and replacement with 45 μl of Calcium-6 dye (Molecular Devices) prepared at 1× in assay buffer. Cells are loaded with dye for 60-90 min at 37° C., 5% CO2 before initiation of the FLIPR^TETRA protocol. […] At the end of the incubation period, 10 μl of AVP in assay buffer containing 0.1% BSA was added at the previously determined EC80 concentration.

human Arginine Vasopressin Receptor 1a (AVPR1a), sequence (P37288 whole entry): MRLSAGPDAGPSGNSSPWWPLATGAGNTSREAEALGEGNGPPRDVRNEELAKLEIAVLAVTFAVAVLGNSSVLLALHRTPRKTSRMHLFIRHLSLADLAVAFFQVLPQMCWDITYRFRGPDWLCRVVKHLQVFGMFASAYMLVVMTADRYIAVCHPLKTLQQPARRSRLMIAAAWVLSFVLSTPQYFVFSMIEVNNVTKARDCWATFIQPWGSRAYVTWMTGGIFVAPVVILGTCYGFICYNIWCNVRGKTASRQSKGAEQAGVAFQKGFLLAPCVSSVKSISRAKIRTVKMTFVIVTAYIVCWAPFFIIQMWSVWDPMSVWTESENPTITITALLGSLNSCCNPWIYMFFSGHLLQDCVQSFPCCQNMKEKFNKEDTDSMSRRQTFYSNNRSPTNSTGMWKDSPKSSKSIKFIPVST

Row | SMILES | IC50 [nM]
1 | Cc1cnc(N2CC3(CC(c4nnc5n4-c4ccc(Cl)cc4CN(C4CC4)C5)C3)C2)nc1 [compound 234] | 100 to 500
2 | COC(=O)N1Cc2cc(Cl)ccc2-n2c(nnc2C2CC3(C2)CN(c2ccncn2)C3)C1 [compound 186] | 100 to 500
3 | CN1Cc2cc(Cl)ccc2-n2c(nnc2C2CC3(C2)CN(c2nn(C)c4ncccc24)C3)C1 [compound 231] | 100 to 500
4 | Fc1ccc(N2CC3(CC(c4nnc5n4-c4ccc(Cl)cc4CNC5)C3)C2)nc1 [compound 60, 8-chloro-1-(2-(5-fluoropyridin-2-yl)-2-azaspiro[3.3]heptan-6-yl)-5,6-dihydro-4H-benzo[f][1,2,4]triazolo[4,3-a][1,4]diazepine] | 100 to 500
5 | Cc1cnc(N2CC3(CC(c4nnc5n4-c4ccc(Cl)cc4CN(C4(C)CC4)C5)C3)C2)nc1 [compound 253] | 100 to 500
6 | COCCN1Cc2cc(Cl)ccc2-n2c(nnc2C2CC3(C2)CN(c2cccnc2)C3)C1 [compound 55] | 100 to 500
7 | Cc1ccc(N2CC3(CC(c4nnc5n4-c4ccc(Cl)cc4CN(C4(C)CC4)C5)C3)C2)nc1 [compound 265] | 100 to 500
8 | O=C1OCC2c3nnc(C4CC5(C4)CN(c4ncccn4)C5)n3-c3ccc(Cl)cc3CN12 (stereo not drawn) [compound 198] | 100 to 500
9 | CC(C)N1Cc2cc(Cl)ccc2-n2c(nnc2C2CC3(C2)CN(c2cccnc2)C3)C1 [compound 51] | 100 to 500

same assay, conditions: read-out: V1a IC50

Row | SMILES | IC50 [nM]
10 | Cc1ccnc(N2CC3(CC(c4nnc5n4-c4ccc(Cl)cc4CN(C)C5)C3)C2)c1 [compound 241, 8-chloro-5-methyl-1-(2-(4-methylpyridin-2-yl)-2-azaspiro[3.3]heptan-6-yl)-5,6-dihydro-4H-benzo[f][1,2,4]triazolo[4,3-a][1,4]diazepine] | < 100
11 | Cc1ccnc(N2CC3(CC(c4nnc5n4-c4ccc(Cl)cc4CN(C4CC4)C5)C3)C2)c1 [compound 217, 8-chloro-5-cyclopropyl-1-(2-(4-methylpyridin-2-yl)-2-azaspiro[3.3]heptan-6-yl)-5,6-dihydro-4H-benzo[f][1,2,4]triazolo[4,3-a][1,4]diazepine] | < 100
12 | COC(=O)N1Cc2cc(Cl)ccc2-n2c(C3CC4(C3)CN(c3ncncc3F)C4)nnc2C1C (single isomer, unassigned) [Cpd 188B] | > 1000
13 | Cc1cc(N2CC3(CC(c4nnc5n4-c4ccc(Cl)cc4CN(C4(C)CC4)C5)C3)C2)ncc1F [compound 245] | < 100
14 | CC(C)OC(=O)N1Cc2cc(Cl)ccc2-n2c(C3CC4(C3)CN(c3ncc(F)cn3)C4)nnc2C1C (single isomer, unassigned) [Cpd 201B] | 500 to 1000
15 | Cn1nc(N2CC3(CC(c4nnc5n4-c4ccc(Cl)cc4CN(C4CC4)C5)C3)C2)c2cccnc21 [compound 250] | < 100
16 | CN1Cc2cc(Cl)ccc2-n2c(nnc2C2CC3(C2)CN(C(=O)N2CCOCC2)C3)C1 [compound 25] | > 1000
17 | CC1c2nnc(C3CC4(C3)CN(c3ncc(F)cn3)C4)n2-c2ccc(Cl)cc2CN1C(=O)OC(CF)CF (single isomer, unassigned) [Cpd 194B] | > 1000
18 | Cc1cc(N2CC3(CC(c4nnc5n4-c4ccc(Cl)cc4CN(C4CC4)C5)C3)C2)ncc1F [compound 235] | < 100
19 | O=C(C1C[C@H]1F)N1Cc2cc(Cl)ccc2-n2c(nnc2C2CC3(C2)CN(c2ccc(F)cn2)C3)C1 (stereo partly drawn) [compound 158] | < 100
20 | CN1Cc2cc(Cl)ccc2-n2c(nnc2C2CC3(C2)CN(c2ncccn2)C3)C1 [compound 38] | < 100
21 | CCOC(=O)N1Cc2cc(Cl)ccc2-n2c(C3CC4(C3)CN(c3ncccn3)C4)nnc2C1C (single isomer, unassigned) [Cpd 168B] | 100 to 500
22 | N#Cc1cccc(N2CC3(CC(c4nnc5n4-c4ccc(Cl)cc4CN(C4CC4)C5)C3)C2)n1 [compound 228] | < 100
23 | COCCN1Cc2cc(Cl)ccc2-n2c(nnc2C2CC3(C2)CN(c2ccc(F)cn2)C3)C1 [compound 44] | < 100
24 | CN1Cc2cc(Cl)ccc2-c2c(C3CC4(C3)CN(c3ccc(F)cn3)C4)noc2C1 [compound 97, 8-chloro-1-(2-(5-fluoropyridin-2-yl)-2-azaspiro[3.3]heptan-6-yl)-5-methyl-5,6-dihydro-4H-benzo[c]isoxazolo[4,5-e]azepine] | < 100
25 | COCC(=O)N1CC2(CC(c3nnc4n3-c3ccc(Cl)cc3CN(C)C4)C2)C1 [compound 126] | > 1000
26 | Cc1ccc(N2CC3(CC(c4nnc5n4-c4ccc(Cl)cc4CN(C4CC4)C5)C3)C2)nc1 [compound 227] | < 100
27 | Cc1cncc(N2CC3(CC(c4nnc5n4-c4ccc(Cl)cc4CN(C)C5)C3)C2)n1 [compound 237] | < 100
28 | Cc1cc(C)nc(N2CC3(CC(c4nnc5n4-c4ccc(Cl)cc4CN(C4CC4)C5)C3)C2)c1 [compound 275] | < 100
29 | CN1Cc2cc(Cl)ccc2-n2c(nnc2C2CC3(C2)CN(C(=O)c2ccccn2)C3)C1 [compound 24] | > 1000

Row | SMILES | IC50 [nM]
30 | CCOC(=O)N1Cc2cc(Cl)ccc2-n2c(C3CC4(C3)CN(c3nccc(C(F)(F)F)n3)C4)nnc2C1C (stereo not drawn) [compound 190] | < 100
31 | Cc1cncc(N2CC3(CC(c4nnc5n4-c4ccc(Cl)cc4CN(C4CC4)C5)C3)C2)n1 [compound 221] | < 100
32 | FC(F)(F)Oc1cccnc1N1CC2(CC(c3nnc4n3-c3ccc(Cl)cc3CN(C3CC3)C4)C2)C1 [compound 272] | < 100
33 | CN1Cc2cc(Cl)ccc2-n2c(nnc2C2CC3(C2)CN(c2ncc(F)cn2)C3)C1 [compound 236, 8-chloro-5-methyl-1-(2-(5-fluoropyrimidin-2-yl)-2-azaspiro[3.3]heptan-6-yl)-5,6-dihydro-4H-benzo[f][1,2,4]triazolo[4,3-a][1,4]diazepine] | < 100
34 | CCOC(=O)N1Cc2cc(Cl)ccc2-n2c(C3CC4(C3)CN(c3ccc(F)cn3)C4)nnc2C1C (single isomer, unassigned) [Cpd 169B] | 100 to 500
35 | Fc1cncnc1N1CC2(CC(c3nnc4n3-c3ccc(Cl)cc3CN(C3CC3)C4)C2)C1 [compound 247] | < 100
36 | COC(=O)N1Cc2cc(Cl)ccc2-n2c(C3CC4(C3)CN(c3cnccn3)C4)nnc2C1C (single isomer, unassigned) [Cpd 165B] | 500 to 1000
37 | CC1(N2Cc3cc(Cl)ccc3-n3c(nnc3C3CC4(C3)CN(c3ncc(F)cn3)C4)C2)CC1 [compound 261] | < 100
38 | COC(=O)N1Cc2cc(Cl)ccc2-n2c(C3CC4(C3)CN(c3ccncn3)C4)nnc2C1C (single isomer, unassigned) [Cpd 184B] | > 1000
39 | CC1c2nnc(C3CC4(C3)CN(c3ccc(F)cn3)C4)n2-c2ccc(Cl)cc2CN1C(=O)C(C)(C)F (single isomer, unassigned) [Cpd 178B] | 100 to 500
40 | O=C(C(F)F)N1Cc2cc(Cl)ccc2-n2c(nnc2C2CC3(C2)CN(c2cnccn2)C3)C1 [compound 82] | < 100
41 | CN1Cc2cc(Cl)ccc2-n2c(nnc2C2CC3(C2)CN(C(=O)OC2CCOCC2)C3)C1 [compound 29] | > 1000
42 | CC1c2nnc(C3CC4(C3)CN(c3ccc(F)cn3)C4)n2-c2ccc(Cl)cc2CN1C(=O)OC1CC1 (single isomer, unassigned) [Cpd 191B] | > 1000
43 | COc1cc(N2CC3(CC(c4nnc5n4-c4ccc(Cl)cc4CN(C4CC4)C5)C3)C2)ncc1F [compound 249] | < 100
44 | Clc1ccc2c(c1)CN(C1CC1)Cc1nnc(C3CC4(C3)CN(c3ccncn3)C4)n1-2 [compound 233] | < 100
45 | CN1Cc2cc(Cl)ccc2-n2c(nnc2C2CC3(C2)CN(c2noc4ccccc24)C3)C1 [compound 256] | < 100
46 | CC1c2nnc(C3CC4(C3)CN(c3ccccn3)C4)n2-c2ccc(Cl)cc2CN1C(=O)C1(F)CC1 (single isomer, unassigned) [Cpd 181B] | 100 to 500
47 | CN1Cc2cc(Cl)ccc2-n2c(nnc2C2CC3(C2)CN(C(=O)CC2CC2)C3)C1 [compound 32] | > 1000
48 | COC(=O)N1Cc2cc(Cl)ccc2-n2c(C3CC4(C3)CN(c3ncc(F)cn3)C4)nnc2C1C (single isomer, unassigned) [Cpd 170B] | 500 to 1000
